Experimental findings from US10076519B2 (CYTOKINETICS, INC., priority 2010, dated 2018) are described below.

The test system of one test is rabbit skeletal myofibrils (fast skeletal myofibrils). The experiment in a line: Activation of fast skeletal myofibrils (PUMA assay, PK/LDH-coupled ATPase at pCa25). It is filed as biochemical. The settings on record: AC1.4 determined according to the procedure of Example 39; reported as class symbols. The method in brief: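 Detergent-washed rabbit psoas myofibrils (~90% fast fibres, calcium-regulated) assayed at calcium giving 25% of maximal ATPase rate (pCa25). ADP turnover coupled via pyruvate kinase/lactate dehydrogenase to NADH oxidation, read at 340 nm. Buffer 12 mM PIPES, 2 mM MgCl2, 1 mM DTT, pH 6.8; AC1.4 values derived.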
For `COc1ccc(CCNc2ccc(-c3cccc(C(N)=O)c3)nn2)cc1`, the “Mean AC1.4” value was “D (D=>20 uM)”.
Still for that read-out and setting: with `CC(C)=Cc1ccc(NCC(C)(C)c2ccc(F)cc2)nn1` [[2-(4-fluorophenyl)-2-methylpropyl][6-(2-methylprop-1-enyl)pyridazin-3-yl]amine] the entry was “B (B=1-10 uM)”.
Still for that read-out and setting: the result for `NC(=O)c1cccc(-c2ccc(NCC3(c4ccc(F)cn4)CCC3)nn2)c1` reads “B (B=1-10 uM)”; that for `NC(=O)c1cccc(-c2ccc(NCCc3ccc(Cl)cc3Cl)nn2)c1`, “C (C=10-20 uM)”.

The test is the same for the next values; noted with them: median AC1.4 class, procedure of Example 39.
For the compound `NC(=O)c1ccc(-c2ccc(NC3(c4ncccc4F)CCC3)nn2)s1` [5-(6-{[(3-fluoro-2-pyridyl)cyclobutyl]amino}pyr-idazin-3-yl)thiophene-2-carboxamide], the “Mean AC1.4” value is listed as “B (B=1-10 uM)”.
As for `COC(=O)c1ccc(F)c(-c2ccc(NC[C@]3(c4ncccc4F)C[C@H](F)C3)nn2)c1` [methyl 4-fluoro-3-[6-({[3-fluoro-1-(3-fluoro(2-pyridyl))cyclobutyl]methyl}ami-no)pyridazin-3-yl]benzoate], the “Mean AC1.4” value was “B (B=1-10 uM)”.
As to `OC(O)(c1cnc(-c2ccc(NCC3(c4ncccc4F)CCC3)nn2)s1)C(F)(F)F` [2,2,2-trifluoro-1-{2-[6-({[(3-fluoro(2-pyridyl))cyclobutyl]methyl}ami-no)pyridazin-3-yl](1,3-thiazol-5-yl)}ethane-1,1-diol], the “Mean AC1.4” value is on record as “B (B=1-10 uM)”.
For the compound `CC(OC(=O)NC(C)(C)C(=O)NCc1cnc(-c2ccc(NCC3(c4ncccc4F)CCC3)nn2)s1)OC(=O)C(C)C` (stereo not shown) [(N-{1-[N-({2-[6-({[(3-fluoro(2-pyridyl))cyclobutyl]methyl}ami-no)pyridazin-3-yl](1,3-thiazol-5-yl)}methyl)carbamoyl]-isopropyl}carbamoyloxy)ethyl 2-methylpropanoate], the “Mean AC1.4” value is reported as “A (A=<1 uM)”.
With `CNC(=O)c1ccc(F)c(-c2ccc(NC[C@]3(c4ncccc4F)C[C@H](F)C3)nn2)c1` [{4-fluoro-3-[6-({[3-fluoro-1-(3-fluoro(2-pyridyl))cyclobutyl]methyl}ami-no)pyridazin-3-yl]phenyl}-N-methylcarboxamide], the “Mean AC1.4” value is listed as “A (A=<1 uM)”.
`Fc1cccnc1[C@]1(CNc2ccc(-c3cccc(-c4nn[nH]n4)c3)nn2)C[C@@H](F)C1` [[6-(3-(2H-1,2,3,4-tetraazol-5-yl)phenyl)pyridazin-3-yl]{[3-fluoro-1-(3-fluoro(2-pyridyl))cyclobutyl]methyl}amine]: the “Mean AC1.4” value is on record as “A (A=<1 uM)”.
Turning to `CC(C)(Nc1ccc(-c2cc(C(N)=O)ccc2F)nn1)c1cccc(=O)[nH]1`, the “Mean AC1.4” value is recorded as “D (D=>20 uM)”.

Staying with this test, now noted: median AC1.4 reported as class; procedure of Example 39.
On to `O=C(O)c1cc(-c2ccc(NC[C@]3(c4ncccc4F)C[C@H](F)C3)nn2)ccc1F` [2-fluoro-5-[6-({[3-fluoro-1-(3-fluoro(2-pyridyl))cyclobutyl]methyl}ami-no)pyridazin-3-yl]benzoic acid], for which the “Mean AC1.4” value is recorded as “B (B=1-10 uM)”.
For the compound `O=C(NC1CCCNC1=O)c1ccc(NCC2(c3ncccc3F)CCC2)nn1` (stereo not shown) [[6-({[(3-fluoro(2-pyridyl))cyclobutyl]methyl}ami-no)pyridazin-3-yl]-N-(2-oxo(3-piperidyl))carboxamide], the “Mean AC1.4” value is “D (D=>20 uM)”.
